Results reported in US8063048B2, “Acetylenyl-pyrazolo-pyrimidine derivatives” (Hoffmann-La Roche Inc., priority 2005, dated 2011).
pKi: −log10 of the molar value. Each block holds one compound with its values, some of them ahead of it.

Tests used:
[1] = target: T1, mGlu2 receptor (Rattus norvegicus, UniProt P31421); assay: [3H]-LY354740 binding on mGlu2 transfected CHO cell membranes; details: inhibition of 10 nM [3H]-LY354740 binding, membranes of CHO cells transfected with rat mGlu2, room temperature, 1 hour
T1 construct: expressed in transfected cells; membranes prepared
T1 sequence (P31421 19-872): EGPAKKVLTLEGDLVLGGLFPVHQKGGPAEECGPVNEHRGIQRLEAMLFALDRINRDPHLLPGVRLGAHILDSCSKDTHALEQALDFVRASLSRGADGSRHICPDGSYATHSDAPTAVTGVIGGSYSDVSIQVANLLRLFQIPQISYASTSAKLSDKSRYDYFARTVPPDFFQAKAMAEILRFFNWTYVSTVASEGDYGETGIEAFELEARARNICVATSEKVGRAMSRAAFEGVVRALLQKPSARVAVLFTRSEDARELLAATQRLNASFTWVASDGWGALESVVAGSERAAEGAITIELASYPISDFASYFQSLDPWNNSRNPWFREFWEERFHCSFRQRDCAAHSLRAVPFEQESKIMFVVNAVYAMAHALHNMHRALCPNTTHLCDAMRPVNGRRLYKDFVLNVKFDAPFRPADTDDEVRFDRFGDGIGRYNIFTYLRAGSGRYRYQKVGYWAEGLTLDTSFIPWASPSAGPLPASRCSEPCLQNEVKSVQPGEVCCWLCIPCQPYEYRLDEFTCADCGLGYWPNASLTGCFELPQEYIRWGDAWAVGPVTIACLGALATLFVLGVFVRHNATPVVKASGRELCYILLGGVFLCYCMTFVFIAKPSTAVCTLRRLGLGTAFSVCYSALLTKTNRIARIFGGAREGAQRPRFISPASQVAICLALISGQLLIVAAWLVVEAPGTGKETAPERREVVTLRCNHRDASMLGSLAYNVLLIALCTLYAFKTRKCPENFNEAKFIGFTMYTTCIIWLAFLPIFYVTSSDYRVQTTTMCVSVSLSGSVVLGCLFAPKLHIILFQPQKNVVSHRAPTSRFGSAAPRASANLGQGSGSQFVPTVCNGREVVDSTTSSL
Text: [^3H]-LY354740 Binding on mGlu2 Transfected CHO Cell Membranes. Transfection and Cell Culture
cDNA encoding the rat mGlu2 receptor protein in pBluescript II was subcloned into the eukaryotic expression vector pcDNA I-amp from Invitrogen Ltd (Paisley, UK). This vector construct (pcD1mGR^2) was co-transfected with a psvNeo plasmid encoding the gene for neomycin resistance, into CHO cells by a modified calcium phosphate method described by Chen & Okayama (1988). The cells were maintained in Dulbecco's Modified Eagle medium with reduced L-glutamine (2 mM final concentration) and 10% dialyzed fetal calf serum from Gibco-Invitrogen (Carlsbad, Calif., USA). Selection was made in the presence of G-418 (1000 ug/mL final) and MCPG[…]. Clones were identified by reverse transcription of 5 μg total RNA, followed by PCR using mGlu2 receptor specific primers 5′-[…]-3′ and 5′-[…]-3′ in 60 mM Tris HCl (pH 10), 15 mM (NH4)2SO4, 2 mM MgCl2, 25 units/mLTaq Polymerase with 30 cycles annealing at 60° C. for 1 min., extention at 72° C. for 30 s, and 1 min. 95° C. denaturation.
Cells, cultured as above, were harvested and washed three times with cold PBS and frozen at −80° C. The pellet was resuspended in cold 20 mM HEPES-NaOH buffer containing 10 mM EDTA (pH 7.4) and homogenized with a polytron (Kinematica, AG, Littau, Switzerland) for 10 s at 10 000 rpm. After centrifugation for 30 min. at 4° C., the pellet was washed once with the same buffer, and once with cold 20 mM HEPES-NaOH buffer containing 0.1 mM EDTA, (pH 7.4). Protein content was measured using the micro BCA method from Pierce-Perbio (Rockford, Ill., USA) using bovine serum albumin as standard.
After thawing, the membranes were resuspended in cold 50 mM Tris-HCl buffer containing 2 mM MgCl2 (pH 7) (binding buffer). The final concentration of the membranes in the assays was 25 μg protein/ml. Inhibition experiments were performed with membranes incubated with 10 nM [^3H]-LY354740 at room temperature, for 1 hour, in presence of various concentrations of the compound to be tested. Following the incubations, membranes were filtered onto Whatmann GF/B glass fiber filters and washed 5 times with cold binding buffer. Non specific binding was measured in the presence of 10 μM DCG IV. After transfer of the filters into plastic vials containing 10 mL of Ultima-gold scintillation fluid from Perkin-Elmer (Boston, Mass., USA), the radioactivity was measured by liquid scintillation in a Tri-Carb 2500 TR counter (Packard, Zürich, Switzerland).
The inhibition curves were fitted with a four parameter logistic equation giving IC50 values, and Hill coefficients.

Structure (SMILES): NS(=O)(=O)c1cccc(C#Cc2cnn3c(C(F)(F)F)cc(-c4ccc(C(F)(F)F)cc4)nc23)c1 [Example 1, 3-[7-Trifluoromethyl-5-(4-trifluoromethyl-phenyl)-pyrazolo[1,5-a]pyrimidin-3-ylethynyl]-benzenesulfonamide]
pKi [1]: 8.70 | melting point: 243 °C

Structure (SMILES): NS(=O)(=O)c1ccc(C#Cc2cnn3c(C4CC4)cc(-c4ccc(Cl)c(Cl)c4)nc23)s1 [Example 86, 5-[7-Cyclopropyl-5-(3,4-dichloro-phenyl)-pyrazolo[1,5-a]pyrimidin-3-ylethynyl]-thiophene-2-sulfonic acid amide]
pKi [1]: 8.52 | melting point: 213 to 214 °C

Structure (SMILES): CC(CO)(CO)NS(=O)(=O)c1cncc(C#Cc2cnn3c(C(F)(F)F)cc(-c4ccc(Cl)c(Cl)c4)nc23)c1 [Example 91, 5-[5-(3,4-Dichloro-phenyl)-7-trifluoromethyl-pyrazolo[1,5-a]pyrimidin-3-ylethynyl]-pyridine-3-sulfonic acid (2-hydroxy-1-hydroxymethyl-1-methyl-ethyl)-amide]
pKi [1]: 8.40

Structure (SMILES): CN1CCN(S(=O)(=O)c2ccc(C#Cc3cnn4c(C(F)(F)F)cc(-c5ccc(C(F)(F)F)cc5)nc34)s2)CC1 [Example 157, 3-[5-(4-Methyl-piperazine-1-sulfonyl)-thiophen-2-ylethynyl]-7-trifluoromethyl-5-(4-trifluoromethyl-phenyl)-pyrazolo[1,5-a]pyrimidine]
pKi [1]: 8.10 | melting point: 250 °C

Structure (SMILES): NS(=O)(=O)c1ccc(C#Cc2ncn3c(C(F)(F)F)cc(-c4ccc(C(F)(F)F)cc4)nc23)cc1 [Example 178, 4-[4-Trifluoromethyl-2-(4-trifluoromethyl-phenyl)-imidazo[1,5-a]pyrimidin-8-ylethynyl]-benzenesulfonamide]
pKi [1]: 8.10 | melting point: 290 °C

Structure (SMILES): NS(=O)(=O)c1ccc(C#Cc2ncn3c(C(F)(F)F)cc(-c4ccc(C(F)(F)F)cc4)nc23)s1 [Example 179, 5-[4-Trifluoromethyl-2-(4-trifluoromethyl-phenyl)-imidazo[1,5-a]pyrimidin-8-ylethynyl]-thiophene-2-sulfonic acid amide]
pKi [1]: 9.00 | melting point: 255 °C

Structure (SMILES): NS(=O)(=O)c1cc(C#Cc2cnc3c(C(F)(F)F)cc(-c4ccc(C(F)(F)F)cc4)cn23)c(F)cc1F [Example 180, 2,4-Difluoro-5-[8-trifluoromethyl-6-(4-trifluoromethyl-phenyl)-imidazo[1,2-a]pyridin-3-ylethynyl]-benzenesulfonamide]
pKi [1]: 8.05 | melting point: 306 to 307 °C

Structure (SMILES): Nc1ncc(C#Cc2cnn3c(C4CC4)cc(-c4ccc(Cl)cc4)nc23)cn1 [Example 313, 5-[5-(4-Chloro-phenyl)-7-cyclopropyl-pyrazolo[1,5-a]pyrimidin-3-ylethynyl]-pyrimidin-2-ylamine]
melting point: 243 to 246 °C

Continued, values first:

melting point: 246 to 248 °C
Structure (SMILES): Cc1cc(-c2ccc(C(F)(F)F)cc2)nc2c(C#Cc3cnc(N)nc3)cnn12 [Example 315, 5-[7-Methyl-5-(4-trifluoromethyl-phenyl)-pyrazolo[1,5-a]pyrimidin-3-ylethynyl]-pyrimidin-2-ylamine]

melting point: 280 to 282 °C
Structure (SMILES): Cc1cc(-c2ccc(Cl)cc2)nc2c(C#Cc3cnc(N)nc3)cnn12 [Example 316, 5-[5-(4-Chloro-phenyl)-7-methyl-pyrazolo[1,5-a]pyrimidin-3-ylethynyl]-pyrimidin-2-ylamine]

melting point: 303 to 305 °C
Structure (SMILES): Nc1ncc(C#Cc2cnn3c(C(F)(F)F)cc(-c4ccc(Cl)cc4)nc23)cn1 [Example 317, 5-[5-(4-Chloro-phenyl)-7-trifluoromethyl-pyrazolo[1,5-a]pyrimidin-3-ylethynyl]-pyrimidin-2-ylamine]

melting point: 172 to 174 °C
Structure (SMILES): O=S(=O)(NCCc1ccncc1)c1ccc(C#Cc2cnn3c(C4CC4)cc(-c4ccc(Cl)cc4)nc23)s1 [Example 318, 5-[5-(4-Chloro-phenyl)-7-cyclopropyl-pyrazolo[1,5-a]pyrimidin-3-ylethynyl]-thiophene-2-sulfonic acid (2-pyridin-4-yl-ethyl)-amide]
